Results from US6060608A, “Analogs of CC-1065 and the duocarmycins” (The Scripps Research Institute, priority 1999, dated 2000).

How the values were obtained:
[1] = system: w794 DNA, 5'-AATTA high affinity site; assay: Relative rate of DNA alkylation at the w794 5'-AATTA high affinity site; format: biochemical, SV40; details: 25° C.
Method: Rate of DNA Alkylation. The relative rates of DNA alkylation for the natural enantiommers of CCBI-TMI (35) and CCBI-indole2 (37) versus those of the corresponding CBI and MCBI agents were measured at the single high affinity site in w794, 5'-AATTA. The relative rates earlier studies of DNA alkylation for MCBI-TMI, CBI-TMI, and duocarmycin SA were determined to be quite similar at 4° C., 1.8:1.0:0.9, respectively. […] In prior studies, we have highlighted similar observations with agents that span a much larger range of relative reactivities.
The DNA alkylation selectivity and efficiency of the natural enantiomers of 304-307 were compared with that of 1 in w794 DNA. […] These trends in the overall efficiency of DNA alkylation parallel the relative trends in cytotoxic potency.
(§1) DNA Alkylation Relative Rate of (+)-CCBI-TMI (35), (+)-CBI-TMI, and (+)-MCBI-TMI. Following the procedure detailed above, Eppendorf tubes containing 5' end-labeled w794 DNA (9 μL) in TE buffer (pH 7.5) were treated with (+)-CCBI-TMI (35), (+)-CBI-TMI, or (+)-MCBI-TMI (1 μL, 10^-6 M in DMSO). The solutions were mixed and incubated at 25° C. for 2, 4, 6, 9, 12, 15, and 24 h, respectively. Subsequent isolation of the alkylated DNA by EtOH precipitation, resuspension in TE buffer (10 μL, pH 7.5), thermolysis (30 min, 100° C.), PAGE, and autoradiography were conducted as detailed above. Relative rates for alkylation at the w794 high-affinity 5'-AATTA site were derived from the slopes of the plots of percent integrated optical density (IOD) of the high-affinity alkylation cleavage bands versus time.
as §1, with “(+)-CCBI-indole2 (37), (+)-CBI-indole2,” for “(+)-CCBI-TMI (35), (+)-CBI-TMI,”, “(+)-MCBI-indole2.” for “(+)-MCBI-TMI.”, “(+)-CCBI-indole2 (37), (+)-CBI-indole2, and (+)-MCBI-indole2” for “(+)-CCBI-TMI (35), (+)-CBI-TMI, or (+)-MCBI-TMI”

w794 duplex DNA = assay: DNA alkylation selectivity and efficiency within w794 DNA, thermally-induced strand cleavage and PAGE; format: biochemical, SV40; details: for DNA alkylation less efficient than 1 or 305: natural enantiomers, 25° C., 24 h
From the text: DNA Alkylation Selectivity and Efficiency. The DNA alkylation properties of the agents were examined within w794 duplex DNA, a 144 base-pair segment of duplex DNA for which comparative results are available for related agents. The alkylation site identification and the assessment of the relative selectivity among the available sites were obtained by thermally-induced strand cleavage of the singly 5' end-labeled duplex DNA after exposure to the agents. Following treatment of the end-labeled duplex DNA with a range of agent concentrations, the unbound agent was removed by EtOH precipitation of the DNA. Redissolution of the DNA in aqueous buffer, thermolysis (100° C., 30 min) to induce strand cleavage at the sites of DNA alkylation, denaturing high resolution polyacrylamide gel electrophoresis (PAGE) adjacent to Sanger dideoxynucleotide sequencing standards, and autoradiography led to identification of the DNA cleavage and alkylation sites. The DNA alkylation reaction selectivities observed under the incubation conditions for the agents detailed herein have proven identical to the alkylation selectivities observed with shorter or extended reaction periods or when the reactions were conducted at different temperatures (37 or 4° C., 0.5-7 d). As discussed below, the rates and efficiencies but not final relative efficiencies of DNA alkylation were altered by changing the reaction temperatures.
DNA Alkylation Properties. […] The DNA alkylation reaction was examined within w794 DNA for which comparative results are available for past agents. The alkylation site identification was obtained by thermal strand cleavage of the singly 5' end-labeled duplex DNA after exposure to the agents. Following treatment of the labeled DNA with a range of agent concentrations, the unbound agent was removed by EtOH precipitation of the DNA. Redissolution of the DNA in aqueous buffer, thermolysis at 100° C. (30 min) to induce depurination and strand cleavage at the adenine N3 or guanine N3 minor groove alkylation sites, denaturing high resolution PAGE adjacent to Sanger sequencing standards and autoradiography provided the DNA cleavage and alkylation sites.
DNA Alkylation Studies: selectivity and Efficiency. General procedures, the preparation of singly ^32 P 5' end-labeled double stranded DNA, the agent binding studies, gel electrophoresis, and autoradiography were conducted according to standard procedures. Eppendorf tubes containing the 5' end-labeled DNA (9 μL) in TE buffer (10 mM Tris, 1 mM EDTA, pH 7.5) were treated with the agent in DMSO (1 μL at the specified concentration). The solution was mixed by vortexing and brief centrifugation and subsequently incubated at 4 or 25° C. for 24 h (natural enantiomers) and 25 or 37° C. (unnatural enantiomers) for 72 h. The covalently modified DNA was separated from unbound agent by EtOH precipitation and resuspended in TE buffer (10 μL). The solution of DNA in an Eppendorf tube sealed with parafilm was warmed at 100° C. for 30 min to induce cleavage at the alkylation sites, allowed to cool to 25° C. and centrifuged. Formamide dye (0.03% xylene cyanol FF, 0.03% bromophenol blue, 8.7% Na2 EDTA 250 mM) was added (5 μL) to the supernatant. Prior to electrophoresis, the sample was denatured by warming at 100° C. for 5 min, placed in an icebath, and centrifuged, and the supernatant (3 μL) was loaded directly onto the gel. Sanger dideoxynucleotide sequencing reactions were run as standards adjacent to the reaction samples. Polyacrylamide gel electrophoresis (PAGE) was run on an 8% sequencing gel under denaturing conditions (8 M urea) in TBE buffer (100 mM Tris, 100 mM boric acid, 0.2 mM Na2 EDTA) followed by autoradiography.
DNA Alkylation of w794 DNA. Eppendorf tubes containing the 5'-end labeled DNA (9 μL) in TE buffer (10 mM Tris, 1 mM EDTA, pH 7.2) were treated with the agent in DMSO (1 μL at the specified concentration). […]

[2] = In vitro cytotoxic activity (cell line not given); format: cell-based; details: for less potent than ent-(-)-1: unnatural enantiomers
[3] = Aqueous solvolysis reactivity followed by UV; format: physicochemical
Method: The reactivity of 217-219 was assessed by following the solvolysis spectrophotometrically by UV at both pH 3 (50% CH3 OH-buffer, buffer=4:1:20 (v/v/v) 0.1 M citric acid, 0.2 M Na2 HPO4, H2 O) and pH 7 (1:1 H2 O--CH3 OH) measuring both the disappearance of the long-wavelength absorption band of the F2 CBI chromophore and the appearance of a short-wavelength absorption band attributable to the ring open products (FIG. 31).
Aqueous Solvolysis Reactivity. pH 3: N-BOC-CCBI (25, 100 μg) was dissolved in CH3 OH (1.5 mL) and mixed with pH 3 aqueous buffer (1.5 mL). The buffer contained 4:1:20 (v:v:v) 0.1 M citric acid, 0.2 M Na2 HPO4 and H2 O, respectively. The solvolysis solution was sealed and kept at 25° C. protected from light. The UV spectrum was measured at regular intervals every 2 h during the first day, every 12 h for another week, and every 24 h for an additional week. The decrease in the long-wavelength absorption at 322 nm and the increase in the short-wavelength absorption at 268 nm were monitored, FIG. 1.
pH 2: Samples of 25 (100 μg) and 26 (50 μg) were dissolved in CH3 OH (1.5 mL) and the solutions were mixed with aqueous buffer (pH 2.05, 1.5 mL). The buffer contained 4:1:20 (v:v:v) 1.0 M citric acid, 0.2 M Na2 HPO4, and H2 O, respectively. Immediately after mixing, the UV spectra of the solutions were measured against a reference solution containing CH3 OH (1.5 mL) and the aqueous buffer (1.5 mL) and these readings were used for the initial absorbance values. The solutions were stoppered, protected from the light, and allowed to stand at 25° C. UV spectra were recorded at regular intervals until constant values were obtained for the long and short wavelength absorbances. The solvolysis rate constants were determined from the slope of the lines obtained from linear least squares treatment of plots of ln[(Af -Ai)/(Af -A)] versus time using the short wavelength measurements for 25 and long wavelength measurements for 26).

L1210 = assay: In vitro cytotoxic activity, L1210; details: N-BOC derivatives

COc1ccc2c(c1)C13CC1CN(C(=O)c1cc4cc(NC(=O)c5cc6ccccc6[nH]5)ccc4[nH]1)C3=CC2=O (single isomer, unassigned) [MCBI-indole2]
relative rate of DNA alkylation, indole2 series [1]: 1.4 ×

N#Cc1ccc2c(c1)C13CC1CN(C(=O)c1cc4cc(NC(=O)c5cc6ccccc6[nH]5)ccc4[nH]1)C3=CC2=O (single isomer, unassigned) [compound 37]
relative rate of DNA alkylation, indole2 series [1]: 2.5 ×
DNA alkylation more efficient than MCBI or CBI based agents (w794 duplex DNA): 1.5-2 ×
DNA alkylation sequence selectivity (w794 duplex DNA): stronger preference for the fourth base to be A or T but that preference extended to include a fifth 5' A or T base

COC(=O)c1cc2c([nH]1)C(=O)C=C1N(C(=O)c3cc4ccccc4[nH]3)CC3CC123 (single isomer, unassigned) [compound 304]
reduction in cytotoxic potency relative to duocarmycin SA ([2]; natural enantiomers): 6.5 -fold
less potent than ent-(-)-1 [2]: 13-18 ×
DNA alkylation less efficient than 1 or 305 (w794 duplex DNA): 20 ×

COC(=O)c1cc2c([nH]1)C(=O)C=C1N(C(=O)c3cc4ccc(OC)cc4[nH]3)CC3CC123 (single isomer, unassigned) [compound 306]
cytotoxic activity relative to duocarmycin SA or 304 (words) [2]: intermediate activity
properties relative to duocarmycin SA or 304 [2]: properties more analogous to 304
less potent than ent-(-)-1 [2]: 13-18 ×
DNA alkylation less efficient than 1 or 305 (w794 duplex DNA): 5-10 ×

COC(=O)c1cc2c([nH]1)C(=O)C=C1N(C(=O)c3cc4cccc(OC)c4[nH]3)CC3CC123 (single isomer, unassigned) [compound 307]
cytotoxic activity relative to duocarmycin SA or 304 (words) [2]: equipotent with (+)-304
properties relative to duocarmycin SA or 304 [2]: properties more analogous to 304
less potent than ent-(-)-1 [2]: 13-18 ×
DNA alkylation less efficient than 1 or 305 (w794 duplex DNA): 5-10 ×

COC(=O)c1cc2c([nH]1)C(=O)C=C1N(C(=O)c3cc4cc(OC)ccc4[nH]3)CC3CC123 (single isomer, unassigned) [ent-(-)-305]
cytotoxic activity relative to duocarmycin SA or 304 (words) [2]: more closely approached the full activity of ent-(-)-1

CC(C)(C)OC(=O)N1CC2CC23C1=CC(=O)c1ccccc13 (stereo not drawn) [N-BOC-CBI, reference compound]
solvolysis stability/reactivity [3]: stable
half-life ([3]; 50% ch3oh-buffer, pH 3): 133 h
solvolysis rate constant k ([3]; pH 3, 50% CH3OH-buffer): 1.45e-06 s⁻¹
relative cytotoxic potency of natural versus unnatural enantiomers (L1210): 11 ×
concentration at which both enantiomers alkylate DNA (w794 duplex DNA; FIG. 24, 37° C., 48 h): 10^-2 M

COc1cc2cc(C(=O)N3CC4CC45C3=CC(=O)c3ccc(C#N)cc35)[nH]c2c(OC)c1OC (stereo not drawn) [compound 35]
relative rate of DNA alkylation, TMI series ([1]; 10^-6 M): 2.5 ×
DNA alkylation more efficient than MCBI or CBI based agents (w794 duplex DNA): 1.5-2 ×
DNA alkylation sequence selectivity (w794 duplex DNA): strong preference but not absolute requirement for the fourth 5' base to be A or T versus G or C
